Results from patent US8343475B2, “Small cationic antimicrobial peptides” (priority 2006, dated 2013).
Converted amounts (≈) assume the structure as drawn. Residues, ends and D or L forms follow the SMILES beside them.

Assays:
Type in all cases: cell-based
[1] = system: Pseudomonas aeruginosa PAO1 strain H103; conditions: PAO1
Method: The biological activity of the peptides can be determined by standard methods known to those of skill in the art, such as “minimal inhibitory concentration (MIC)” assay described in the present examples, whereby the lowest concentration at which no change in OD is observed for a given period of time is recorded as MIC.
(§1) Minimal inhibitory concentration (MIC) determination. The MIC of the peptides were measured using a modified broth microdilution method in Mueller Hinton (MH) medium (Wu M, Hancock R E W. 1999. Interaction of the cyclic antimicrobial cationic peptide bactenecin with the outer and cytoplasmic membrane. J Biol Chem 274, 29-35). Briefly, the peptides were dissolved and stored in glass vials. The assay was performed in sterile 96-well polypropylene microtitre plates were used. Serial dilutions of the peptides to be assayed were performed in 0.01% acetic acid (Fisher) containing 0.2% bovine serum albumin (Boehringer Mannheim GmbH) at 10× the desired final concentration. Ten microlitres of the 10× peptides were added to each well of a 96-well polypropylene plate containing 90 μl of MH media per well. Bacteria were added to the plate from an overnight culture at 2-7×10^5 colony forming units/ml and incubated over night at 37° C. The MIC was taken as the concentration at which no growth was observed.
(§2) Strains. For the killing assay a mini-Tn5-lux mutant in Pseudomonas aeruginosa H103 was used. The strain is called H1001 and contains a fliC::luxCDABE transcriptional fusion resulting in constitutive expression of luciferase. The bacterial strains used for the antimicrobial activity assays included Escherichia coli UB1005 (F-, nalA37, metB1), a wild-type Salmonella enterica ssp. typhimurium (S. typhimurium), wild-type Pseudomonas aeruginosa PAO1 strain H103, Enterococcus faecalis ATCC29212, Staphylococcus aureus ATCC25923, and a clinical isolate of Staphylococcus epidermidis obtained from Dr. D. Speert (Department of Medicine, University of British Columbia). Antifungal activity was tested using a lab isolate of Candida albicans obtained from Dr. B. Dill (Department of Microbiology and Immunology, University of British Columbia).

[2] = system: Enterococcus faecalis ATCC29212; conditions: ATCC29212
Method: as §1, §2

[3] = system: lab isolate of Candida albicans; conditions: lab isolate of
Method: as §1, §2

[4] = system: wild-type Salmonella enterica ssp. typhimurium
Method: as §1, §2

[5] = system: Staphylococcus aureus ATCC25923; conditions: ATCC25923
Method: as §1, §2

[6] = system: clinical isolate of Staphylococcus epidermidis; conditions: clinical isolate of
Method: as §1, §2

Escherichia coli UB1005 = conditions: UB1005
Method: as §1, §2

Structure (SMILES): CC[C@H](C)[C@H](NC(=O)[C@H](Cc1c[nH]c2ccccc12)NC(=O)[C@H](CC(C)C)NC(=O)[C@H](CCCNC(=N)N)NC(=O)[C@@H](N)C(C)C)C(=O)N[C@@H](CCCNC(=N)N)C(=O)N[C@H](C(=O)N[C@@H](C)C(=O)N[C@H](C(=O)N[C@H](C(=O)N[C@@H](CCCNC(=N)N)C(=O)N[C@@H](C)C(N)=O)[C@@H](C)CC)C(C)C)C(C)C [HH5, VRLWIRVAVIRA] (H-VRLWIRVAVIRA-NH2)
- MIC P. aerug [1]: >50 µg/mL
- MIC E. faecalis [2]: 25 µg/mL (≈ 17.2 µM)
- MIC C. albicans [3]: 50 µg/mL (≈ 34.5 µM)
- MIC S. typhi [4]: >50 µg/mL
- MIC S. aureus [5]: 50 µg/mL (≈ 34.5 µM)
- MIC S. epi. [6]: 3 µg/mL (≈ 2.07 µM)
- MIC E. coli (Escherichia coli UB1005): 6 µg/mL (≈ 4.14 µM)

Structure (SMILES): CC[C@H](C)[C@H](NC(=O)[C@H](CCCNC(=N)N)NC(=O)[C@H](CC(C)C)NC(=O)[C@H](CCCNC(=N)N)NC(=O)[C@@H](N)C(C)C)C(=O)N[C@@H](CCCNC(=N)N)C(=O)N[C@H](C(=O)N[C@@H](Cc1c[nH]c2ccccc12)C(=O)N[C@H](C(=O)N[C@H](C(=O)N[C@@H](CCCNC(=N)N)C(=O)N[C@@H](C)C(N)=O)[C@@H](C)CC)C(C)C)C(C)C [HH6, VRLRIRVWVIRA] (H-VRLRIRVWVIRA-NH2)
- MIC P. aerug [1]: 12 µg/mL (≈ 7.81 µM)
- MIC E. faecalis [2]: 6 µg/mL (≈ 3.91 µM)
- MIC C. albicans [3]: 25 µg/mL (≈ 16.3 µM)
- MIC S. typhi [4]: 12 µg/mL (≈ 7.81 µM)
- MIC S. aureus [5]: 6 µg/mL (≈ 3.91 µM)
- MIC S. epi. [6]: 1.6 µg/mL (≈ 1.04 µM)
- MIC E. coli (Escherichia coli UB1005): 3 µg/mL (≈ 1.95 µM)

Structure (SMILES): CC[C@H](C)[C@H](NC(=O)[C@H](CCCNC(=N)N)NC(=O)[C@H](CC(C)C)NC(=O)[C@H](CCCNC(=N)N)NC(=O)[C@@H](N)C(C)C)C(=O)N[C@@H](CCCNC(=N)N)C(=O)N[C@H](C(=O)N[C@@H](C)C(=O)N[C@H](C(=O)N[C@@H](CCCNC(=N)N)C(=O)N[C@@H](CCCNC(=N)N)C(=O)N[C@@H](C)C(N)=O)C(C)C)C(C)C [HH7, VRLRIRVAVRRA] (H-VRLRIRVAVRRA-NH2)
- MIC P. aerug [1]: 12 µg/mL (≈ 8.2 µM)
- MIC E. faecalis [2]: 25 µg/mL (≈ 17.1 µM)
- MIC C. albicans [3]: 6 µg/mL (≈ 4.1 µM)
- MIC S. typhi [4]: 6 µg/mL (≈ 4.1 µM)
- MIC S. aureus [5]: 12 µg/mL (≈ 8.2 µM)
- MIC S. epi. [6]: 1.6 µg/mL (≈ 1.09 µM)
- MIC E. coli (Escherichia coli UB1005): 6 µg/mL (≈ 4.1 µM)

Structure (SMILES): CC[C@H](C)[C@H](NC(=O)[C@H](CCCNC(=N)N)NC(=O)[C@H](CC(C)C)NC(=O)[C@H](CCCNC(=N)N)NC(=O)[C@@H](N)C(C)C)C(=O)N[C@@H](CCCNC(=N)N)C(=O)N[C@H](C(=O)N[C@@H](C)C(=O)N[C@H](C(=O)N[C@H](C(=O)N[C@@H](CCCNC(=N)N)C(=O)N[C@@H](CCCCN)C(N)=O)[C@@H](C)CC)C(C)C)C(C)C [HH8, VRLRIRVAVIRK] (H-VRLRIRVAVIRK-NH2)
- MIC P. aerug [1]: 6 µg/mL (≈ 4.06 µM)
- MIC E. faecalis [2]: 12 µg/mL (≈ 8.12 µM)
- MIC C. albicans [3]: 3 µg/mL (≈ 2.03 µM)
- MIC S. typhi [4]: 6 µg/mL (≈ 4.06 µM)
- MIC S. aureus [5]: 6 µg/mL (≈ 4.06 µM)
- MIC S. epi. [6]: 1.6 µg/mL (≈ 1.08 µM)
- MIC E. coli (Escherichia coli UB1005): 3 µg/mL (≈ 2.03 µM)

Structure (SMILES): CC[C@H](C)[C@H](NC(=O)[C@H](CCCNC(=N)N)NC(=O)[C@H](CC(C)C)NC(=O)[C@H](CCC(N)=O)NC(=O)[C@@H](N)C(C)C)C(=O)N[C@@H](CCCNC(=N)N)C(=O)N[C@H](C(=O)N[C@@H](CCCNC(=N)N)C(=O)N[C@H](C(=O)N[C@H](C(=O)N[C@@H](CCCNC(=N)N)C(=O)N[C@@H](CCCCN)C(N)=O)[C@@H](C)CC)C(C)C)C(C)C [HH9, VQLRIRVRVIRK] (H-VQLRIRVRVIRK-NH2; N-terminus assumed)
- MIC P. aerug [1]: 6 µg/mL (≈ 3.91 µM)
- MIC E. faecalis [2]: 12 µg/mL (≈ 7.82 µM)
- MIC C. albicans [3]: 6 µg/mL (≈ 3.91 µM)
- MIC S. typhi [4]: 6 µg/mL (≈ 3.91 µM)
- MIC S. aureus [5]: 12 µg/mL (≈ 7.82 µM)
- MIC S. epi. [6]: 1.6 µg/mL (≈ 1.04 µM)
- MIC E. coli (Escherichia coli UB1005): 3 µg/mL (≈ 1.95 µM)
